Reference: patent publication US20050271721A1, “Carvedilol-hydrophilic solutions” (priority 2000, published 2005)

What was measured:
[1] = solubility of carvedilol in aqueous media; type: physicochemical; settings: about pH 1-2
[2] = dissolution of carvedilol in melted polyethylene glycol 6,000; type: physicochemical; settings: polyethylene glycol 6,000 melted at about 70° C.
Protocol: Thus, carvedilol can be dissolved in polyethylene glycol 6,000 which is melted at about 70° C. In this manner there are obtained highly concentrated solutions of carvedilol (up to 500 mg/ml), with the carvedilol being present distributed as a molecular dispersion in the solution. Moreover, further additives, for example cellulose derivatives such as hydroxypropylmethylcelluloses or hydroxypropylcelluloses, can be admixed in order to control the release rate of the active substance. Further, the compositions in accordance with the invention can contain highly dispersed silicon dioxide as an anti-caking agent.

[3] = investigations into the gastrointestinal resorption of carvedilol; type: in vivo; settings: passage through the gastrointestinal tract
[4] = resorption after peroral administration of rapid release carvedilol formulations; type: in vivo; settings: e.g. the commercial formulation
From the text: In the case of the peroral administration of rapid release carvedilol formulations, e.g. the commercial formulation, resorption quotas of up to 80% are achieved, with a considerable part of the resorbed carvedilol being very rapidly metabolized.

With `COc1ccccc1OCCNCC(O)COc1cccc2[nH]c3ccccc3c12` (stereo not shown) [carvedilol, 1-(4-carbazolyloxy)-3-[2-(2-methoxyphenoxy)ethyl-amino]-2-propanol] the “solubility in the strongly acidic region” value [1] was “very low solubility”, the “concentration of the carvedilol solution (molecular dispersion)” value [2] was “up to 500 mg/ml” and the “resorption in the ileum and colon relative to the stomach” value [3] was “only a fraction of the resorption in the stomach”. For the same molecule, the resorption quota [4] was “up to 80%”.
